This is an account of results in patent publication US20110217297A1, “METHODS FOR CLASSIFYING AND TREATING BREAST CANCERS” (priority 2010, published 2011).

The test system of assay [1] is tumors. The settings on record: TNP-470 below maximum tolerated dose plus cyclophosphamide 170 mg/kg, every 6 days, in combination; cited from earlier work.
Assay [2] has as its system breast cancer molecular subtypes I-VI. The experiment in a line: Metastasis-free and overall survival of breast cancer patients treated with CMF or CAF adjuvant chemotherapy, compared in each molecular subtype (log-rank test). It is filed as in vivo, human. The settings on record: for sensitivity / response of the breast cancer subtype to the drug or regimen: molecular subtype IV breast cancer, inferred from CMF vs CAF survival. The source says:
Patients who had been diagnosed, treated and followed for breast cancer progression between 1991 and 2003 at the Koo Foundation Sun Yat-Sen Cancer Center (KFSYSCC), and had their fresh breast cancer tissue frozen in liquid nitrogen at the institutional tumor bank were identified. […] The study was approved by the institutional review board. Samples deposited in the tumor bank were randomly selected. A total of 447 cases were available. Samples of insufficient RNA (n=1), poor RNA quality (n=116) or unacceptable microarray quality (n=18) were excluded from the study, leaving 312 random samples available (Cohort-1). Gene expression profiles of 15 additional lobular carcinomas of breast collected between 1999 and 2004 were also included in the study (Cohort 2). Thus, the total number of samples was 327.
All statistical analyses were conducted using SAS/STAT software (ver. 9.1.3) (SAS Institute, Inc.) and R software package (v2.6) from Bioconductor. Fisher's exact test was conducted to determine statistical correlation between molecular subtypes and various clinical phenotypes. The exact p values were estimated by Monte Carlo simulation. Log-rank test was used to analyze survival differences between different molecular subtypes or treatment groups.
The breast cancer samples used in this study were collected over a period of more than 10 years. The period covered a major shift of chemotherapy regimen from CMF (cyclophosphamide-methotrexate-fluorouracil) therapy to CAF (cyclophosphamide-adriamycin-fluorouracil) therapy around 1997 and 1998. The cohorts in this study offered a precious opportunity to investigate how different molecular subtypes of breast cancer responded differently to this change of adjuvant chemotherapy regimen.
Metastasis-free and overall survival were compared for patients treated with CMF and CAF for adjuvant therapy in each molecular subtype. […] Nevertheless, the CAF group had more N stage=1 patients and the CMF group had more N stage=0 patients (Table 15b).

“Also recorded” adds a separate entry of the source.

With `CO[C@@H]1[C@H](OC(=O)NC(=O)CCl)CC[C@]2(CO2)[C@H]1[C@@]1(C)O[C@@H]1CC=C(C)C` [TNP-470], the “tumor response to the treatment regimen” value in assay [1] was “complete regression”.

As for `COc1cccc2c1C(=O)c1c(O)c3c(c(O)c1C2=O)C[C@@](O)(C(=O)CO)C[C@@H]3O[C@H]1C[C@H](N)[C@H](O)[C@H](C)O1` [adriamycin, doxorubicin], the “treatment results (metastasis-free and overall survival), CAF vs CMF adjuvant chemotherapy” value in assay [2] (molecular subtype IV breast cancer patients, adjuvant chemotherapy after surgery) is recorded as “dramatic impact; also recorded: significantly improved”. Also, the “sensitivity / response of the breast cancer subtype to the drug or regimen” value in assay [2] was “very sensitive”. Turning to `O=P1(N(CCCl)CCCl)NCCCO1` (centres unmarked) [cyclophosphamide], the “tumor response to the treatment regimen” value in assay [1] is given as “complete regression”. For the compound `CN(Cc1cnc2nc(N)nc(N)c2n1)c1ccc(C(=O)N[C@@H](CCC(=O)O)C(=O)O)cc1` [methotrexate], the “sensitivity / response of the breast cancer subtype to the drug or regimen” value in assay [2] is listed as “relatively insensitive”.
